From patent US20200338045A1, “ISOINDOLINE COMPOSITIONS AND METHODS FOR TREATING NEURODEGENERATIVE DISEASE” (priority 2017, published 2020)
“Also recorded” adds a separate entry of the source. Where two headings read alike, the source gives them in different places.

What was measured:
[1] = Phase 1 single ascending dose (SAD)/food-effect plasma pharmacokinetics; format: in vivo, human; conditions: for Cmax / Tmax / AUC(0-inf) / half-life: human, plasma, oral; for AUC(0-inf): read-out: AUC0-inf (mean)
Method: (§1) Part A was a single ascending dose cohort study in which healthy, young subjects (less than 65 years old) received one dose of study drug in the morning after an overnight fast. Cohort dosing started at 10 mg and increased to 30 mg, 90 mg, 180 mg, 450 mg, and 1120 mg in subsequent cohorts. Six drug-treated and two placebo-treated subjects were randomized in each cohort. A seventh cohort of six subjects each received a single 90 mg dose of drug 30 min. after a meal. Following completion of all safety assessments and blood draws for PK analyses, subjects were discharged on Day 3.
In Part A, blood draws for assessment of PK parameters occurred pre-dose and at 15, 30, 45, 60, and 90 minutes post dose as well as at 2, 3, 4, 8, 12, 24, 36, and 48 hours post dose. […] In Part B, blood samples for plasma PK analysis were taken on Day 1 at pre-dose and at 2 hours post-dose, on Day 3 at pre-dose and at 15, 30 and 45 minutes and 1, 2, 3, 4, 8, 12 and 24 hours post-dose, on Days 4, 6, 8 and 10 at pre-dose and at 1.5 hours post-dose and following the final dose on Day 14 at pre-dose and 15, 30 and 45 minutes and 1, 2, 4, 8, 12, 24, 36 and 48 hours post-dose.
This was assessed by analysis of variance (ANOVA) of log-transformed Cmax, AUC0-24, AUC0-48, and/or AUC0-inf, using a model with factors for treatment (fed status or age [young vs. elderly] status) and subject within sequence. Treatment mean differences and 90% confidence intervals of the log transformed PK parameters were back-transformed, to present the geometric least squares means ratios and 90% confidence limits.

[2] = Phase 1 SAD safety (adverse events, laboratory, ECG); format: in vivo, human
Method: as §1
Safety variables, including incidence of adverse events (AEs), vital signs, clinical laboratory findings, 12-lead electrocardiographs (ECGs), physical examination, and affective and cognitive measures (Part B only), were summarized for all subjects who received study drug.

[3] = 30 mg, single 30 mg, fasted (n = 6)
[4] = 90 mg, single 90 mg, fasted (n = 6)
[5] = 90 mg, single 90 mg, fed (n = 6)
[6] = 180 mg, single 180 mg, fasted (n = 6)
[7] = 450 mg, single 450 mg, fasted (n = 6)
[8] = 1120 mg, single 1120 mg, fasted (n = 6)
[9] = single 90 mg, geometric least-squares mean

With `CC(C)(C)Oc1cc(CCC(C)(C)N2Cc3ccc(S(C)(=O)=O)cc3C2)ccc1O` [CT1812] the “food effect on CT1812 exposure” value ([1]; 90 mg fed vs. fasted) was “not considered clinically significant; also recorded: no significant difference”, the “Cmax and AUC / plasma concentration vs dose” value ([1]; SAD 10 mg to 1120 mg) was “dose proportional; also recorded: slightly greater than proportional with dose; also recorded: slightly greater than dose proportionally” and the Cmax ([1]; 10 mg, single 10 mg, fasted, Day 1 (n = 6)) was 5.07 ng/mL. It also gave a Tmax ([1]; 10 mg, single 10 mg, fasted, Day 1 (n = 6), read-out: Tmax (median)) of 1.5 h, an AUC(0-inf) ([1]; 10 mg, single 10 mg, fasted, Day 1, n = 5) of 30.6 ng·h/mL and a half-life ([1]; 10 mg, single 10 mg, fasted, Day 1, n = 5, read-out: t1/2 (mean) (converted)) of 12 h. The Cmax [1, 3] was 19.5 ng/mL, the AUC(0-inf) [1, 3] was 77.2 ng·h/mL and the Tmax ([1]; 30 mg, single 30 mg, fasted (n = 6), read-out: Tmax (median)) was 0.88 h. It also gave a half-life ([1]; 30 mg, single 30 mg, fasted (n = 6), read-out: t1/2 (mean) (converted)) of 14 h, a Cmax [1, 4] of 109 ng/mL and an AUC(0-inf) [1, 4] of 305 ng·h/mL. For the same compound, the Tmax ([1]; 90 mg, single 90 mg, fasted (n = 6), read-out: Tmax (median)) was 1.25 h, the half-life ([1]; 90 mg, single 90 mg, fasted (n = 6), read-out: t1/2 (mean) (converted)) was 12.1 h and the Cmax [1, 5] was 81.7 ng/mL. The AUC(0-inf) [1, 5] was 261 ng·h/mL, the Tmax ([1]; 90 mg, single 90 mg, fed (n = 6), read-out: Tmax (median)) was 1.5 h and the half-life ([1]; 90 mg, single 90 mg, fed (n = 6), read-out: t1/2 (mean) (converted)) was 11.6 h. For the same compound, the Cmax [1, 6] was 161 ng/mL, the AUC(0-inf) [1, 6] was 478 ng·h/mL and the Tmax ([1]; 180 mg, single 180 mg, fasted (n = 6), read-out: Tmax (median)) was 1.25 h. It also gave a half-life ([1]; 180 mg, single 180 mg, fasted (n = 6), read-out: t1/2 (mean) (converted)) of 11.1 h, a Cmax [1, 7] of 504 ng/mL and an AUC(0-inf) [1, 7] of 1750 ng·h/mL. For the same compound, the Tmax ([1]; 450 mg, single 450 mg, fasted (n = 6), read-out: Tmax (median)) was 1.5 h, the half-life ([1]; 450 mg, single 450 mg, fasted (n = 6), read-out: t1/2 (mean) (converted)) was 12.2 h and the Cmax [1, 8] was 1460 ng/mL. The AUC(0-inf) [1, 8] was 6320 ng·h/mL, the Tmax ([1]; 1120 mg, single 1120 mg, fasted (n = 6), read-out: Tmax (median)) was 1.5 h and the half-life ([1]; 1120 mg, single 1120 mg, fasted (n = 6), read-out: t1/2 (mean) (converted)) was 11.8 h. The Tmax ([1]; part A (SAD), 10-1120 mg, read-out: median Tmax in plasma, range over doses) was 0.88 to 1.5 h, the half-life ([1]; part A (SAD), read-out: apparent mean half-life, range over doses) was 11.1 to 14 h and the “AUC0-48h lower under fed vs fasted conditions” value [1, 9] was roughly 20%. For the same compound, the “AUC0-inf lower under fed vs fasted conditions” value [1, 9] was roughly 20%, the “Cmax lower under fed vs fasted conditions” value [1, 9] was “approximately 40%” and the “ECG parameters or changes” value ([2]; SAD) was “No ECG parameters or changes were assessed as clinically significant”. For the same compound, the “deaths or serious adverse events” value ([2]; SAD) was “no deaths or other serious adverse events”, the “All TEAEs, number of subjects” value ([2]; SAD Total Active (n = 42)) was 18 and the “Headache, % of subjects” value ([2]; SAD Total Active (n = 42)) was “(14%)”. The “Headache, number of subjects” value ([2]; SAD Total Active (n = 42)) was 6, the “Nausea, % of subjects” value ([2]; SAD Total Active (n = 42)) was “(14%)” and the “Nausea, number of subjects” value ([2]; SAD Total Active (n = 42)) was 6. The “All TEAEs, % of subjects” value ([2]; single 10 mg fasted (n = 6)) was “(33%)”, the “All TEAEs, number of subjects” value ([2]; single 10 mg fasted (n = 6)) was 2 and the “Headache, % of subjects” value ([2]; single 10 mg fasted (n = 6)) was “(50%)”. For the same compound, the “Headache, number of subjects” value ([2]; single 10 mg fasted (n = 6)) was 3, the “Nausea, % of subjects” value ([2]; single 10 mg fasted (n = 6)) was “(17%)” and the “Nausea, number of subjects” value ([2]; single 10 mg fasted (n = 6)) was 1. The “All TEAEs, % of subjects” value ([2]; single 30 mg fasted (n = 6)) was “(67%)”, the “All TEAEs, number of subjects” value ([2]; single 30 mg fasted (n = 6)) was 4 and the “All TEAEs, % of subjects” value ([2]; single 90 mg fed (n = 6)) was “(33%)”. For the same compound, the “All TEAEs, number of subjects” value ([2]; single 90 mg fed (n = 6)) was 2, the “Headache, % of subjects” value ([2]; single 90 mg fed (n = 6)) was “(17%)” and the “Headache, number of subjects” value ([2]; single 90 mg fed (n = 6)) was 1. For the same compound, the “All TEAEs, % of subjects” value ([2]; single 180 mg fasted (n = 6)) was “(33%)”, the “All TEAEs, number of subjects” value ([2]; single 180 mg fasted (n = 6)) was 2 and the “All TEAEs, % of subjects” value ([2]; single 450 mg fasted (n = 6)) was “(67%)”. The “All TEAEs, number of subjects” value ([2]; single 450 mg fasted (n = 6)) was 4, the “Headache, % of subjects” value ([2]; single 450 mg fasted (n = 6)) was “(17%)” and the “Headache, number of subjects” value ([2]; single 450 mg fasted (n = 6)) was 1. The “Nausea, % of subjects” value ([2]; single 450 mg fasted (n = 6)) was “(33%)”, the “Nausea, number of subjects” value ([2]; single 450 mg fasted (n = 6)) was 2 and the “All TEAEs, % of subjects” value ([2]; single 1120 mg fasted (n = 6)) was “(67%)”. For the same compound, the “All TEAEs, number of subjects” value ([2]; single 1120 mg fasted (n = 6)) was 4, the “Headache, % of subjects” value ([2]; single 1120 mg fasted (n = 6)) was “(17%)” and the “Headache, number of subjects” value ([2]; single 1120 mg fasted (n = 6)) was 1. For the same compound, the “Nausea, % of subjects” value ([2]; single 1120 mg fasted (n = 6)) was “(50%)”, the “Nausea, number of subjects” value ([2]; single 1120 mg fasted (n = 6)) was 3 and the “tolerability, single dose” value ([2]; single dose 10 mg to 1120 mg, healthy young subjects) was “safe and well tolerated”.
